We go through one compound from EPA's ToxValDB 9.5 (doi:10.2903/j.efsa.2010.1542).

The structures appear in SMILES notation. ≈ marks a conversion by molar mass, not a printed value.

Series [1] relates to Apis mellifera. Conditions: acute; duration: 48 hours; oral; unspecified; mortality.
Series [2] has as its system Bibionidae. The conditions noted are these: chronic/long-term; duration: 28 days.
Series [3] deals with Canidae. Conditions: chronic; duration: 1 years; oral; Dog Other; organ weight.
The subject of series [4] is Colinus virginianus.
Series [5] concerns Daphnia magna. The conditions noted are these: chronic/long-term; duration: 21 days; reproduction.
Series [6] concerns Oncorhynchus mykiss. Conditions: acute; duration: 96 hours; mortality.
Series [7] deals with Pimephales promelas. Conditions: chronic/long-term; duration: 33 days; growth.
The subject of series [8] is Rattus norvegicus. Conditions: for NOAEL: organ weight.
Series [9] concerns Tagia sp.
Series [10] concerns Aphidius rhopalosiphi. Put plainly: LR50; higher = less toxic. The conditions noted are these: not reported; mortality.

Turning to `CO/C=C(/C(=O)OC)c1ccccc1Oc1cc(Oc2ccccc2C#N)ncn1` [Azoxystrobin], the LD50 was > 25 µg/piece in series [1]; > 2000 mg/kg-day in [4] (acute, oral, mortality); > 5000 mg/kg-day in series [8] (acute, oral, mortality). Moreover, the NOEC in [2] turned out to be 0.8 mg/L; in [4] (reproduction developmental) it was 1200 mg/kg-day; in series [5], 0.044 mg/L; in series [7], 0.147 mg/L; in series [9] (chronic/long-term, duration: 56 days), 3 mg/kg. Moreover, the NOAEL – broadly, the highest dose or exposure tested at which no adverse effect was seen – was 25 mg/kg-day in series [3]; 18 mg/kg-day in series [8] (chronic, duration: 2 years, oral, diet); 21 mg/kg-day in series [8] (subchronic, duration: 90 days, oral). Besides, the LC50 is > 5200 mg/kg-day in series [4] (acute, oral, diet, mortality); 0.47 µg/mL (≈ 1.17 µM) in [6]; 283 mg/kg in [9] (acute, duration: 14 days, mortality). This compound returned an NOEL in [8] (reproduction developmental, body weight) of 32 mg/kg-day. Besides, the LR50 in series [10] was > 1000 g/ha.
